One test concerns the target GAK (human) (UniProt O14976). The experiment in a line: KINOMEscan competition binding. To be noted: compound 10.0 µM.
For test [1], the target named is JAK2 JH1 catalytic (human) (UniProt O60674). The experiment in a line: KINOMEscan competition binding. To be noted: compound 10.0 µM.
Another test has as its target PLK1 (human) (UniProt P53350). The test is described as follows: KINOMEscan competition binding. To be noted: compound 10.0 µM.
Another test deals with PLK4 (human) (UniProt O00444). The test is described as follows: KINOMEscan competition binding. The note with it: compound 10.0 µM.
For test [2], the target named is TTK (human) (UniProt P33981). The experiment in a line: KINOMEscan competition binding. To be noted: for kinase still bound, per cent of control: compound 10.0 µM.
The target of the next test is CSF1R (human) (UniProt P07333). The experiment in a line: SelectScreen, TR FRET.
For a further test, the target named is DCLK2 (human) (UniProt Q8N568). The test is described as follows: SelectScreen, TR FRET. (In TR-FRET formats the signal depends on donor and acceptor labels being close together.)
Another test concerns the target FRK (human) (UniProt P42685). The test is described as follows: SelectScreen, TR FRET.
In a further test the target is PTK6 (human) (UniProt Q13882). The experiment in a line: SelectScreen, TR FRET.
For test [3], the target named is TTK (human) (UniProt P33981). The test is described as follows: SelectScreen, TR FRET.
Another test addresses AAK1 (human) (UniProt Q2M2I8). The test is described as follows: KINOMEscan competition binding. The note with it: compound 10.0 µM.
For a further test, the target named is BMPR1B (human) (UniProt O00238). The test is described as follows: KINOMEscan competition binding. To be noted: compound 10.0 µM.
A further test concerns the target CAMKK2 (human) (UniProt Q96RR4). The test is described as follows: KINOMEscan competition binding. To be noted: compound 10.0 µM.
Another test addresses CLK1 (human) (UniProt P49759). The test is described as follows: KINOMEscan competition binding. To be noted: compound 10.0 µM.
Another test deals with CLK2 (human) (UniProt P49760). The experiment in a line: KINOMEscan competition binding. The note with it: compound 10.0 µM.
The target in the next test is CLK4 (human) (UniProt Q9HAZ1). The experiment in a line: KINOMEscan competition binding. The note with it: compound 10.0 µM.
A further test concerns the target CSNK1G1 (human) (UniProt Q9HCP0). The test is described as follows: KINOMEscan competition binding. To be noted: compound 10.0 µM.
In another test the target is DAPK1 (human) (UniProt P53355). The test is described as follows: KINOMEscan competition binding. To be noted: compound 10.0 µM.
The next test addresses DAPK2 (human) (UniProt Q9UIK4). The experiment in a line: KINOMEscan competition binding. To be noted: compound 10.0 µM.
The target in the next test is DAPK3 (human) (UniProt O43293). The test is described as follows: KINOMEscan competition binding. The note with it: compound 10.0 µM.
Test [4] has as its target DYRK1B (human) (UniProt Q9Y463). The experiment in a line: KINOMEscan competition binding. To be noted: compound 10.0 µM.
For test [5], the system named is EIF2AK4 KD2 (human), Q9P2K8 [S808G]. The test is described as follows: KINOMEscan competition binding. To be noted: compound 10.0 µM.
Test [6] addresses HIPK1 (human) (UniProt Q86Z02). The test is described as follows: KINOMEscan competition binding. The note with it: compound 10.0 µM.
The next test addresses MAP4K2 (human) (UniProt Q12851). The test is described as follows: KINOMEscan competition binding. To be noted: compound 10.0 µM.
Another test addresses MAPK10 (human) (UniProt P53779). The test is described as follows: KINOMEscan competition binding. The note with it: compound 10.0 µM.
For another test, the target named is MAPK8 (human) (UniProt P45983). The test is described as follows: KINOMEscan competition binding. The note with it: compound 10.0 µM.
For a further test, the target named is PAK2 (human) (UniProt Q13177). The test is described as follows: KINOMEscan competition binding. The note with it: compound 10.0 µM.
The target of test [7] is PIM1 (human) (UniProt P11309). The test is described as follows: KINOMEscan competition binding. The note with it: compound 10.0 µM.
Test [8] concerns the target PIM2 (human) (UniProt Q9P1W9). The test is described as follows: KINOMEscan competition binding. To be noted: compound 10.0 µM.
A further test has as its target PIM3 (human) (UniProt Q86V86). The test is described as follows: KINOMEscan competition binding. The note with it: compound 10.0 µM.
The next test has as its target RPS6KA4 KD2 (human) (UniProt O75676). The experiment in a line: KINOMEscan competition binding. To be noted: compound 10.0 µM.
The target of a further test is RPS6KA5 KD2 (human) (UniProt O75582). The test is described as follows: KINOMEscan competition binding. The note with it: compound 10.0 µM.
The target in a further test is STK17A (human) (UniProt Q9UEE5). The test is described as follows: KINOMEscan competition binding. The note with it: compound 10.0 µM.
For another test, the target named is STK17B (human) (UniProt O94768). The test is described as follows: KINOMEscan competition binding. To be noted: compound 10.0 µM.
Another test deals with DYRK1A (human) (UniProt Q13627). The experiment in a line: SelectScreen, TR FRET.
The target of test [9] is DYRK1B (human) (UniProt Q9Y463). The test is described as follows: SelectScreen, TR FRET.
The target in test [10] is HIPK1 (human) (UniProt Q86Z02). The experiment in a line: SelectScreen, TR FRET.
A further test has as its target HIPK2 (human) (UniProt Q9H2X6). The experiment in a line: SelectScreen, TR FRET.
For another test, the target named is CAMK2D (human) (UniProt Q13557). The experiment in a line: KINOMEscan competition binding. To be noted: compound 10.0 µM.
The target in the next test is DCLK1 (human) (UniProt O15075). The test is described as follows: KINOMEscan competition binding. To be noted: compound 10.0 µM.
The target of a further test is RPS6KA2 KD2 (human) (UniProt Q15349). The test is described as follows: KINOMEscan competition binding. To be noted: compound 10.0 µM.
The target in the next test is STK33 (human) (UniProt Q9BYT3). The experiment in a line: KINOMEscan competition binding. To be noted: compound 10.0 µM.
The next test addresses TNK1 (human) (UniProt Q13470). The test is described as follows: KINOMEscan competition binding. To be noted: compound 10.0 µM.
For a further test, the target named is ACVR2B (human) (UniProt Q13705). The test is described as follows: KINOMEscan competition binding. The note with it: compound 10.0 µM.
For the next test, the target named is BRAF (human) (UniProt P15056). The experiment in a line: KINOMEscan competition binding. The note with it: compound 10.0 µM.
The next test has as its target CDK16 (human) (UniProt Q00536). The experiment in a line: KINOMEscan competition binding. The note with it: compound 10.0 µM.
In a further test the target is CDK3 (human) (UniProt Q00526). The experiment in a line: KINOMEscan competition binding. The note with it: compound 10.0 µM.
For another test, the target named is CDK5 (human) (UniProt Q00535). The test is described as follows: KINOMEscan competition binding. The note with it: compound 10.0 µM.
The target of a further test is CDK7 (human) (UniProt P50613). The test is described as follows: KINOMEscan competition binding. To be noted: compound 10.0 µM.
In another test the target is GSK3A (human) (UniProt P49840). The test is described as follows: KINOMEscan competition binding. The note with it: compound 10.0 µM.
In a further test the target is MAPK12 (human) (UniProt P53778). The experiment in a line: KINOMEscan competition binding. The note with it: compound 10.0 µM.
A further test has as its target MAPK15 (human) (UniProt Q8TD08). The experiment in a line: KINOMEscan competition binding. The note with it: compound 10.0 µM.
For another test, the target named is MYLK4 (human) (UniProt Q86YV6). The experiment in a line: KINOMEscan competition binding. To be noted: compound 10.0 µM.
A further test concerns the target NLK (human) (UniProt Q9UBE8). The test is described as follows: KINOMEscan competition binding. The note with it: compound 10.0 µM.
Another test has as its target TAOK1 (human) (UniProt Q7L7X3). The test is described as follows: KINOMEscan competition binding. To be noted: compound 10.0 µM.
A further test addresses TAOK3 (human) (UniProt Q9H2K8). The experiment in a line: KINOMEscan competition binding. To be noted: compound 10.0 µM.
The target of the next test is TGFBR2 (human) (UniProt P37173). The test is described as follows: KINOMEscan competition binding. The note with it: compound 10.0 µM.
Test [11] concerns the target PIM1 (human) (UniProt P11309). The experiment in a line: SelectScreen, TR FRET.
In test [12] the target is PIM2 (human) (UniProt Q9P1W9). The experiment in a line: SelectScreen, TR FRET.
PIM2 (human), sequence (Q9P1W9 whole entry, looked up): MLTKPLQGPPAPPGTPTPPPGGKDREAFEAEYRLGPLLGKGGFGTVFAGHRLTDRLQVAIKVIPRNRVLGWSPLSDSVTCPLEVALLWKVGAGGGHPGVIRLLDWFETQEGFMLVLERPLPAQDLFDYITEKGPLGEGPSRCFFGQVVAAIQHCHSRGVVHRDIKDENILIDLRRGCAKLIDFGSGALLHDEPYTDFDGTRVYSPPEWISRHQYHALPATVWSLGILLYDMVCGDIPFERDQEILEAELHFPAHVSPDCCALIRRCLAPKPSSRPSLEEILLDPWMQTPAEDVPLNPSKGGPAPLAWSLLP

TTK (human), sequence (P33981 whole entry, looked up): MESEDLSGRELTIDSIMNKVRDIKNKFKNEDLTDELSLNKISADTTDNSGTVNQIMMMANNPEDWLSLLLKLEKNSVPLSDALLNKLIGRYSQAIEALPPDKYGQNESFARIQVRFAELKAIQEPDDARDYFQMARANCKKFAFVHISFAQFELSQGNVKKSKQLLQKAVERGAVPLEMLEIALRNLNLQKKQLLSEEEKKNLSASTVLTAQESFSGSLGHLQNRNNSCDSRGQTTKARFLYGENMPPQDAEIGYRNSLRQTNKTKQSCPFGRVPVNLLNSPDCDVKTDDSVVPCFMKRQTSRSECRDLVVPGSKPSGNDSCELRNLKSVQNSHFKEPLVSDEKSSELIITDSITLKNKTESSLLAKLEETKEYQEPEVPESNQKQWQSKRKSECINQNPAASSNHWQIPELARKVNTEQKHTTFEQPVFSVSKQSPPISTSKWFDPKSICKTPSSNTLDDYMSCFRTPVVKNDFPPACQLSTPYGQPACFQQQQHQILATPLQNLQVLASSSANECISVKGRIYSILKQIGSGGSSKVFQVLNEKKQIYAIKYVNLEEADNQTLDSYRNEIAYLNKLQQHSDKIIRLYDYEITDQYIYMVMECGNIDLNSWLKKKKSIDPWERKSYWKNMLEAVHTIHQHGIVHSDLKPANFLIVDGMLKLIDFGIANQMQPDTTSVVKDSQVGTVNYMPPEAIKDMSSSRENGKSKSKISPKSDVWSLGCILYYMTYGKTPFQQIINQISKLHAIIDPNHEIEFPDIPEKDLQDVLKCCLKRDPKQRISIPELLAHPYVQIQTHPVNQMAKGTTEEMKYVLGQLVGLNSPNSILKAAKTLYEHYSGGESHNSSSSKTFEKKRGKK
PIM1 (human), sequence (P11309 whole entry, looked up): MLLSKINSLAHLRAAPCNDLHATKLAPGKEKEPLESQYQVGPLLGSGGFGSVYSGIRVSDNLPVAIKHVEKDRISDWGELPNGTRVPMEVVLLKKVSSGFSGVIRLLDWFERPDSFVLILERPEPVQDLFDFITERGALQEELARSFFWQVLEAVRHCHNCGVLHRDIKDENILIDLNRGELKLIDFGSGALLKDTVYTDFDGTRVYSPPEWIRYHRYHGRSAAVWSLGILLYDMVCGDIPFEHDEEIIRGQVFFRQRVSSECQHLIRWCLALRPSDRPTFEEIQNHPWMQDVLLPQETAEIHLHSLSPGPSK
HIPK1 (human), sequence (Q86Z02 whole entry, looked up): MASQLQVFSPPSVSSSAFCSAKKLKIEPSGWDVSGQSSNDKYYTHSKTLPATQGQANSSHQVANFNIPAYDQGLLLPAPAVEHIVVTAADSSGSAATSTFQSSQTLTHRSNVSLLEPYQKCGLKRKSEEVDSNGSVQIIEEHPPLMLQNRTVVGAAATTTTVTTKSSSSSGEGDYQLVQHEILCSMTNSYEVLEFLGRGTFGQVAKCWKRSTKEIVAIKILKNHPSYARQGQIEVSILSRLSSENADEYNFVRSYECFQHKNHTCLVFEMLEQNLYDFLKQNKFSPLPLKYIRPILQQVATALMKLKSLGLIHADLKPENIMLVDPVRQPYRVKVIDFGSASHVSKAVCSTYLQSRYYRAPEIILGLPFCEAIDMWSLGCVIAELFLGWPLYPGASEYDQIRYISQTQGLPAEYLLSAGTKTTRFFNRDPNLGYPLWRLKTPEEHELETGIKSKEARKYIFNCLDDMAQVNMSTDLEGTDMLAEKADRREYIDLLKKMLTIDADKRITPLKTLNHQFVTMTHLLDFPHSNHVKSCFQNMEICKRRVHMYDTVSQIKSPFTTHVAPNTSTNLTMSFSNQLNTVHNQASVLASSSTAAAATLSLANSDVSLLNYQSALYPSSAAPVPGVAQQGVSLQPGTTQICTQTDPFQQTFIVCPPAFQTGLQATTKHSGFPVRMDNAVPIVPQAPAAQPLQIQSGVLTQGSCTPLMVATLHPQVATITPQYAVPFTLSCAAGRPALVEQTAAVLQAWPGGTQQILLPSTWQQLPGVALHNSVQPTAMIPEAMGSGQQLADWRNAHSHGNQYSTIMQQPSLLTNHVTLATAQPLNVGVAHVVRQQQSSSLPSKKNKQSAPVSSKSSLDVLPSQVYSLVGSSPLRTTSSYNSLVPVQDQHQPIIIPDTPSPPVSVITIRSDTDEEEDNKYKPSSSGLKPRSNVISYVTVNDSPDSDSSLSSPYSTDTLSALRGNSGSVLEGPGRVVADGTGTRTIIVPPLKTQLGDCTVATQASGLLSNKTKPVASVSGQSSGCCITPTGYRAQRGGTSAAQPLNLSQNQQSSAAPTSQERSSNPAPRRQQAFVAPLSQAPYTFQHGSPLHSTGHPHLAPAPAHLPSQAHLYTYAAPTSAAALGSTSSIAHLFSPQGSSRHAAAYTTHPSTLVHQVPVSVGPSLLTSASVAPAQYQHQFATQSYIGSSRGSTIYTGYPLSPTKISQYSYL
STK17B (human), sequence (O94768 whole entry, looked up): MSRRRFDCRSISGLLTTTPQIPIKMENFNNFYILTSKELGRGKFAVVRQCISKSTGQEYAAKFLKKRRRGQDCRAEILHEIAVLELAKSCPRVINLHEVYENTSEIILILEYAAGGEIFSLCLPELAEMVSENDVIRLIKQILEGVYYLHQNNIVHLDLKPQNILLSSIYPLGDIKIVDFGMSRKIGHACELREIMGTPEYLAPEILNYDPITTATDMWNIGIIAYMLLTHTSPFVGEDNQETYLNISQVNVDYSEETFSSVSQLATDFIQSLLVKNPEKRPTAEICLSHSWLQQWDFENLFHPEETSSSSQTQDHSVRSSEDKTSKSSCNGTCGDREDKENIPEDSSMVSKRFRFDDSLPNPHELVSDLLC
DAPK3 (human), sequence (O43293 whole entry, looked up): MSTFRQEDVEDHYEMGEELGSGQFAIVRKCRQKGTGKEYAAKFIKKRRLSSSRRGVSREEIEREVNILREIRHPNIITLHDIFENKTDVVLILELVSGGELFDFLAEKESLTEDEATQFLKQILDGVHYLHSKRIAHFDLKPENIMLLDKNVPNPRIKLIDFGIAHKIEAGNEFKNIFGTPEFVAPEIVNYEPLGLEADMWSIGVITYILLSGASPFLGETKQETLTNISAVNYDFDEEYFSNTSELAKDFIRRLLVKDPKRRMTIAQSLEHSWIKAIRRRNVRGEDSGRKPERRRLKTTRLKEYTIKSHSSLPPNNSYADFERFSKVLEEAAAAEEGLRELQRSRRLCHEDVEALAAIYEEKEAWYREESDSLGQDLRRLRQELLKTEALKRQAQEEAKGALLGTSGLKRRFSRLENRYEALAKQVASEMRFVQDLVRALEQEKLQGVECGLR
DYRK1B (human), sequence (Q9Y463 whole entry, looked up): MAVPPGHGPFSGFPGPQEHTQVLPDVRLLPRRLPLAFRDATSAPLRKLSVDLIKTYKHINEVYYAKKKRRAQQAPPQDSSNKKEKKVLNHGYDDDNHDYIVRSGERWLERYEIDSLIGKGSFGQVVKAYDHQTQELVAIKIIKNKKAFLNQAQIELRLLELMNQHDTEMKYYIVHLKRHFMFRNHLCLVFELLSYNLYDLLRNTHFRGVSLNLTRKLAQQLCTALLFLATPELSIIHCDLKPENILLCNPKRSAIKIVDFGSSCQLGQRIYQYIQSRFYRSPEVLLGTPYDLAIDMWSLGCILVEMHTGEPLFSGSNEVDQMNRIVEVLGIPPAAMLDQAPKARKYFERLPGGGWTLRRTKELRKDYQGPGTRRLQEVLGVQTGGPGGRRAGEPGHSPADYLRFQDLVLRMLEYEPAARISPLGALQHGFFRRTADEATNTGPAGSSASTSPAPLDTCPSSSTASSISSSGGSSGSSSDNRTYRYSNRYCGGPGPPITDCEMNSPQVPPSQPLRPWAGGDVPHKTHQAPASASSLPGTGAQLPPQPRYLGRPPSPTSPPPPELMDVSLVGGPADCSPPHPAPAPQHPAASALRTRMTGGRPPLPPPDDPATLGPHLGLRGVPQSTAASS
STK17A (human), sequence (Q9UEE5 whole entry, looked up): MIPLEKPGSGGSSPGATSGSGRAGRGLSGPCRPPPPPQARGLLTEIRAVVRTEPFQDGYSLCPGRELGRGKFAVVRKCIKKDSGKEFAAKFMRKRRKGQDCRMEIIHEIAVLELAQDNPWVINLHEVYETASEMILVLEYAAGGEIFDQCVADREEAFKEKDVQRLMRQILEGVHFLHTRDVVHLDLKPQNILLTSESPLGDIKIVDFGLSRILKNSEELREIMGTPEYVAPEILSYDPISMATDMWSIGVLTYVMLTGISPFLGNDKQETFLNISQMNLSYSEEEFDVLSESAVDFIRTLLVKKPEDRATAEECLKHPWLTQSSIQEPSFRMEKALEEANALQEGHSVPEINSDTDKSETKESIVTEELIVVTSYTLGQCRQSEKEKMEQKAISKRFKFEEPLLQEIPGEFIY

Take `CN1C(=O)CCN(C2CCCC2)c2nc(Nc3ccc(N4CCC(O)CC4)cn3)ncc21`: the kinase still bound, per cent of control came to 23% at GAK (human); 6.4% in test [1]; 24% on PLK1 (human); 16% at PLK4 (human); 2.2% at TTK (human) [2]. This compound gave a Kd at TTK (human) [2] of 130 nM. In addition, the IC50 amounted to 428 nM on CSF1R (human); 3200 nM at DCLK2 (human); 264 nM at FRK (human); 47 nM against PTK6 (human); 891 nM against TTK (human) [3].

Regarding `N=C1NC(=O)/C(=C/c2c[nH]c(=O)c(-c3ccc4cc[nH]c4c3)c2)S1`, the kinase still bound, per cent of control was 20% at AAK1 (human); 6.2% at BMPR1B (human); 29% on CAMKK2 (human); 24% on CLK1 (human); 4.8% at CLK2 (human); 30% at CLK4 (human). Also, the kinase still bound, per cent of control at CSNK1G1 (human) worked out at 24%; at DAPK1 (human), 9.7%; at DAPK2 (human), 4%; at DAPK3 (human), 8.6%; on DYRK1B (human) [4] it was 8.6%; in test [5], 21%. The kinase still bound, per cent of control at HIPK1 (human) [6] was determined as 4.2%; on MAP4K2 (human) it was 15%; at MAPK10 (human) it was 29%; on MAPK8 (human) it was 28%; on PAK2 (human), 34%; at PIM1 (human) [7], 16%. The kinase still bound, per cent of control is 15% on PIM2 (human) [8]; 12% on PIM3 (human); 8.8% on RPS6KA4 KD2 (human); 23% on RPS6KA5 KD2 (human); 5% at STK17A (human); 13% at STK17B (human). For the same compound, the IC50 was found to be 19 nM at DYRK1A (human), 62 nM against DYRK1B (human) [9], 3810 nM against HIPK1 (human) [10] and 3890 nM at HIPK2 (human).

For the compound `CCOc1cc(N2CCC(O)CC2)ccc1Nc1ncc2c(n1)N(C1CCCC1)CCC(=O)N2CC`, the kinase still bound, per cent of control on CAMK2D (human) is 27%; on DCLK1 (human) it was 27%; on GAK (human), 8.2%; at PLK1 (human), 1.2%; at RPS6KA2 KD2 (human), 13%; at STK33 (human), 22%. Besides, the kinase still bound, per cent of control at TNK1 (human) came to 33%; on TTK (human) [2], 3.9%. In addition, the Kd on TTK (human) [2] is 106 nM. The IC50 on DCLK2 (human) came out at 556 nM; against TTK (human) [3], 1010 nM.

For `N=C1NC(=O)/C(=C/c2ccc(-c3ccc(S(N)(=O)=O)cc3)o2)S1`, the kinase still bound, per cent of control on ACVR2B (human) is 30%; on BRAF (human), 24%; on CDK16 (human), 1.2%; at CDK3 (human), 17%; at CDK5 (human), 9.6%; at CDK7 (human), 23%. For the same compound, the kinase still bound, per cent of control on DAPK1 (human) turned out to be 3.5%; on DAPK2 (human), 16%; on DAPK3 (human), 24%; on GSK3A (human) it was 9.9%; on HIPK1 (human) [6], 0.65%; on MAPK12 (human), 12%. Also, the kinase still bound, per cent of control on MAPK15 (human) was found to be 5.4%; at MYLK4 (human), 6.7%; on NLK (human) it was 18%; on PIM1 (human) [7], 3%; at PIM2 (human) [8], 1.8%; on PIM3 (human) it was 4.8%. Also, the kinase still bound, per cent of control on PLK4 (human) was found to be 15%; at STK17A (human), 1.1%; at STK17B (human), 6%; on TAOK1 (human) it was 2.4%; on TAOK3 (human) it was 29%; at TGFBR2 (human) it was 22%. At TTK (human) [2], this compound yielded a kinase still bound, per cent of control of 24%. For the same compound, the IC50 against PIM1 (human) [11] was 573 nM; against PIM2 (human) [12], 501 nM.

Usually Kd stands for the constant that tells how readily two partners part at equilibrium. Low readings indicate higher affinity, high ones lower affinity. As a reminder, the IC50 is the midpoint of a concentration-inhibition curve. Read a low IC50 as greater potency.

The values above are taken from the kinase profiling compilation of Christmann-Franck et al. (2016).
